Data taken from ChEMBL document CHEMBL6078630, “Design, synthesis, and bioactivity investigation of novel cyclic lipopeptide antibiotics targeting top-priority multidrug-resistant gram-negative bacteria” (Eur J Med Chem, 2024).
Converted amounts (≈) assume the structure as drawn. Bridge positions count the residues as written; N and C are the ends. Square brackets hold non-standard residues; d marks the D form. Peptide text beside a SMILES is read from it. * marks the point of attachment. Heptanoyl(6-Me) = CC(C)CCCCC(=O)*; dOrn = NCCC[C@@H](N)C(=O)O; dDab = NCC[C@@H](N)C(=O)O; Orn = NCCC[C@H](N)C(=O)O; Dab = NCC[C@H](N)C(=O)O; Dap = NC[C@H](N)C(=O)O

Tests used:
[1] = Renal cytotoxicity against HK-2 cells incubated for 72 hrs by CCK8 assay; type: toxicity, cell-based; conditions: human
[2] = test system: Klebsiella pneumoniae; experiment: Antibacterial activity against carbapenem-resistant Klebsiella pneumoniae clinical isolate KPN+19-15 assessed as inhibition of bacterial growth incubated for 16 to 20 hrs by CLSI protocol based broth microdilution method; type: functional; conditions: time 16-20 hrs
[3] = test system: Acinetobacter baumannii; experiment: Antibacterial activity against Acinetobacter baumannii NCTC 13304 (OXA-27) assessed as inhibition of bacterial growth incubated for 16 to 20 hrs by CLSI protocol based broth microdilution method; type: functional; conditions: time 16-20 hrs
[4] = test system: Escherichia coli; experiment: Antibacterial activity against carbapenem-resistant Escherichia coli ATCC BAA-2340 assessed as inhibition of bacterial growth incubated for 16 to 20 hrs by CLSI protocol based broth microdilution method; type: functional; conditions: time 16-20 hrs
[5] = test system: Escherichia coli; experiment: Antibacterial activity against Escherichia coli ATCC BAA-2523 assessed as inhibition of bacterial growth incubated for 16 to 20 hrs by CLSI protocol based broth microdilution method; type: functional; conditions: time 16-20 hrs
[6] = test system: Klebsiella pneumoniae; experiment: Antibacterial activity against carbapenem-resistant Klebsiella pneumoniae ATCC BAA-1705 assessed as inhibition of bacterial growth incubated for 16 to 20 hrs by CLSI protocol based broth microdilution method; type: functional; conditions: time 16-20 hrs
[7] = test system: Pseudomonas aeruginosa; experiment: Antibacterial activity against Pseudomonas aeruginosa ATCC 27853 assessed as inhibition of bacterial growth incubated for 16 to 20 hrs by CLSI protocol based broth microdilution method; type: functional; conditions: time 16-20 hrs
[8] = test system: Acinetobacter baumannii; experiment: Antibacterial activity against carbapenem-sensitive Acinetobacter baumannii clinical isolate 19-1 assessed as inhibition of bacterial growth incubated for 16 to 20 hrs by CLSI protocol based broth microdilution method; type: functional; conditions: time 16-20 hrs
[9] = test system: Pseudomonas aeruginosa; experiment: Antibacterial activity against carbapenem-resistant Pseudomonas aeruginosa clinical isolate 19-3 assessed as inhibition of bacterial growth incubated for 16 to 20 hrs by CLSI protocol based broth microdilution method; type: functional; conditions: time 16-20 hrs

| Structure (SMILES) | IC50 at 72 h [1] | MIC [2] | MIC [3] | MIC [4] | MIC [5] | MIC [6] | MIC [7] | MIC [8] | MIC [9] |
| --- | --- | --- | --- | --- | --- | --- | --- | --- | --- |
| CC(C)CCCCC(=O)N[C@@H](CCN)C(=O)N[C@H](C(=O)N[C@H](CCN)C(=O)N[C@H]1CCNC(=O)[C@H]([C@@H](C)O)NC(=O)[C@H](CCN)NC(=O)[C@H](CCN)NC(=O)[C@H]([C@@H](C)O)NC(=O)[C@@H](Cc2ccccc2)NC(=O)[C@H](CCN)NC1=O)[C@@H](C)O ({Heptanoyl(6-Me)}-[Dab]T[dDab][Dab][Dab][dF]T[Dab][Dab]T; lactam 4-C) | > 500 µg/mL | ≤ 0.03 µg/mL | ≤ 0.03 µg/mL | ≤ 0.03 µg/mL | ≤ 0.03 µg/mL | 0.125 µg/mL (≈ 0.106 µM) | 0.5 µg/mL (≈ 0.425 µM) | 0.06 µg/mL (≈ 0.051 µM) | 0.5 µg/mL (≈ 0.425 µM) |
| CC(C)CCCCC(=O)N[C@@H](CCN)C(=O)N[C@H](C(=O)N[C@H](CCCN)C(=O)N[C@H]1CCNC(=O)[C@H]([C@@H](C)O)NC(=O)[C@H](CCN)NC(=O)[C@H](CCN)NC(=O)[C@H]([C@@H](C)O)NC(=O)[C@@H](Cc2ccccc2)NC(=O)[C@H](CCN)NC1=O)[C@@H](C)O ({Heptanoyl(6-Me)}-[Dab]T[dOrn][Dab][Dab][dF]T[Dab][Dab]T; lactam 4-C) | > 500 µg/mL | 0.125 µg/mL (≈ 0.105 µM) | 0.06 µg/mL (≈ 0.0504 µM) | ≤ 0.03 µg/mL | ≤ 0.03 µg/mL | 0.06 µg/mL (≈ 0.0504 µM) | 0.25 µg/mL (≈ 0.21 µM) | 0.125 µg/mL (≈ 0.105 µM) | 1 µg/mL (≈ 0.839 µM) |
| CC(C)CCCCC(=O)N[C@@H](CCN)C(=O)N[C@H](C(=O)N[C@H](CO)C(=O)N[C@H]1CCNC(=O)[C@H]([C@@H](C)O)NC(=O)[C@H](CN)NC(=O)[C@H](CCN)NC(=O)[C@H]([C@@H](C)O)NC(=O)[C@@H](Cc2ccccc2)NC(=O)[C@H](CCN)NC1=O)[C@@H](C)O ({Heptanoyl(6-Me)}-[Dab]T[dS][Dab][Dab][dF]T[Dab][Dap]T; lactam 4-C) | > 500 µg/mL | ≤ 0.03 µg/mL | ≤ 0.03 µg/mL | ≤ 0.03 µg/mL | ≤ 0.03 µg/mL | 0.06 µg/mL (≈ 0.0522 µM) | 8 µg/mL (≈ 6.95 µM) | 0.06 µg/mL (≈ 0.0522 µM) | 8 µg/mL (≈ 6.95 µM) |
| CC(C)CCCCC(=O)N[C@@H](CCN)C(=O)N[C@H](C(=O)N[C@H](CO)C(=O)N[C@H]1CCNC(=O)[C@H]([C@@H](C)O)NC(=O)[C@H](CCCN)NC(=O)[C@H](CCN)NC(=O)[C@H]([C@@H](C)O)NC(=O)[C@@H](Cc2ccccc2)NC(=O)[C@H](CCN)NC1=O)[C@@H](C)O ({Heptanoyl(6-Me)}-[Dab]T[dS][Dab][Dab][dF]T[Dab][Orn]T; lactam 4-C) | > 500 µg/mL | 0.5 µg/mL (≈ 0.424 µM) | 8 µg/mL (≈ 6.79 µM) | 0.25 µg/mL (≈ 0.212 µM) | 0.25 µg/mL (≈ 0.212 µM) | 1 µg/mL (≈ 0.849 µM) | > 64 µg/mL | 8 µg/mL (≈ 6.79 µM) | > 64 µg/mL |
| CC(C)CCCCC(=O)N[C@@H](CCN)C(=O)N[C@H](C(=O)N[C@H](CO)C(=O)N[C@H]1CCNC(=O)[C@H]([C@@H](C)O)NC(=O)[C@H](CCN)NC(=O)[C@H](CCCN)NC(=O)[C@H]([C@@H](C)O)NC(=O)[C@@H](Cc2ccccc2)NC(=O)[C@H](CCN)NC1=O)[C@@H](C)O ({Heptanoyl(6-Me)}-[Dab]T[dS][Dab][Dab][dF]T[Orn][Dab]T; lactam 4-C) | > 500 µg/mL | 0.125 µg/mL (≈ 0.106 µM) | 0.125 µg/mL (≈ 0.106 µM) | 0.06 µg/mL (≈ 0.0509 µM) | 0.125 µg/mL (≈ 0.106 µM) | 0.25 µg/mL (≈ 0.212 µM) | 4 µg/mL (≈ 3.39 µM) | 0.125 µg/mL (≈ 0.106 µM) | 8 µg/mL (≈ 6.79 µM) |
| CC(C)CCCCC(=O)N[C@@H](CCN)C(=O)N[C@H](C(=O)N[C@H](CO)C(=O)N[C@H]1CCNC(=O)[C@H]([C@@H](C)O)NC(=O)[C@H](CCN)NC(=O)[C@H](CCN)NC(=O)[C@H]([C@@H](C)O)NC(=O)[C@@H](Cc2ccccc2)NC(=O)[C@H](CN)NC1=O)[C@@H](C)O ({Heptanoyl(6-Me)}-[Dab]T[dS][Dab][Dap][dF]T[Dab][Dab]T; lactam 4-C) | > 500 µg/mL | 0.06 µg/mL (≈ 0.0522 µM) | 0.25 µg/mL (≈ 0.217 µM) | 0.06 µg/mL (≈ 0.0522 µM) | 0.06 µg/mL (≈ 0.0522 µM) | 0.25 µg/mL (≈ 0.217 µM) | > 64 µg/mL | 0.25 µg/mL (≈ 0.217 µM) | 64 µg/mL (≈ 55.6 µM) |
| CC(C)CCCCC(=O)N[C@@H](CCN)C(=O)N[C@H](C(=O)N[C@H](CO)C(=O)N[C@H]1CCNC(=O)[C@H]([C@@H](C)O)NC(=O)[C@H](CCN)NC(=O)[C@H](CCN)NC(=O)[C@H]([C@@H](C)O)NC(=O)[C@@H](Cc2ccccc2)NC(=O)[C@H](CCCN)NC1=O)[C@@H](C)O ({Heptanoyl(6-Me)}-[Dab]T[dS][Dab][Orn][dF]T[Dab][Dab]T; lactam 4-C) | > 500 µg/mL | 64 µg/mL (≈ 54.3 µM) | 64 µg/mL (≈ 54.3 µM) | 4 µg/mL (≈ 3.39 µM) | 8 µg/mL (≈ 6.79 µM) | 8 µg/mL (≈ 6.79 µM) | > 64 µg/mL | > 64 µg/mL | > 64 µg/mL |
| CC(C)CCCCC(=O)N[C@@H](CN)C(=O)N[C@H](C(=O)N[C@H](CO)C(=O)N[C@H]1CCNC(=O)[C@H]([C@@H](C)O)NC(=O)[C@H](CCN)NC(=O)[C@H](CCN)NC(=O)[C@H]([C@@H](C)O)NC(=O)[C@@H](Cc2ccccc2)NC(=O)[C@H](CCN)NC1=O)[C@@H](C)O ({Heptanoyl(6-Me)}-[Dap]T[dS][Dab][Dab][dF]T[Dab][Dab]T; lactam 4-C) | > 500 µg/mL | 0.5 µg/mL (≈ 0.435 µM) | 0.25 µg/mL (≈ 0.217 µM) | ≤ 0.03 µg/mL | ≤ 0.03 µg/mL | 0.25 µg/mL (≈ 0.217 µM) | 64 µg/mL (≈ 55.6 µM) | 0.25 µg/mL (≈ 0.217 µM) | 4 µg/mL (≈ 3.48 µM) |
| CC(C)CCCCC(=O)N[C@@H](CCCN)C(=O)N[C@H](C(=O)N[C@H](CO)C(=O)N[C@H]1CCNC(=O)[C@H]([C@@H](C)O)NC(=O)[C@H](CCN)NC(=O)[C@H](CCN)NC(=O)[C@H]([C@@H](C)O)NC(=O)[C@@H](Cc2ccccc2)NC(=O)[C@H](CCN)NC1=O)[C@@H](C)O ({Heptanoyl(6-Me)}-[Orn]T[dS][Dab][Dab][dF]T[Dab][Dab]T; lactam 4-C) | > 500 µg/mL | 0.5 µg/mL (≈ 0.424 µM) | 4 µg/mL (≈ 3.39 µM) | 0.25 µg/mL (≈ 0.212 µM) | 0.25 µg/mL (≈ 0.212 µM) | 0.5 µg/mL (≈ 0.424 µM) | > 64 µg/mL | 4 µg/mL (≈ 3.39 µM) | 64 µg/mL (≈ 54.3 µM) |
